Six molecules from US10654896B2, “FoxP3-binding peptides and uses thereof” (FUNDACIÓN PARA LA INVESTIGACIÓN MÉDICA APLICADA, priority 2016, dated 2020) can be followed below.

One experiment addresses T1, human FOXP3 (FOXP3-6His) (Homo sapiens, UniProt Q9BZS1).
T1 construct: 6xHis (C); made in house; host or cells: E. coli BL21 (DE3)
T1 sequence (Q9BZS1 1-431): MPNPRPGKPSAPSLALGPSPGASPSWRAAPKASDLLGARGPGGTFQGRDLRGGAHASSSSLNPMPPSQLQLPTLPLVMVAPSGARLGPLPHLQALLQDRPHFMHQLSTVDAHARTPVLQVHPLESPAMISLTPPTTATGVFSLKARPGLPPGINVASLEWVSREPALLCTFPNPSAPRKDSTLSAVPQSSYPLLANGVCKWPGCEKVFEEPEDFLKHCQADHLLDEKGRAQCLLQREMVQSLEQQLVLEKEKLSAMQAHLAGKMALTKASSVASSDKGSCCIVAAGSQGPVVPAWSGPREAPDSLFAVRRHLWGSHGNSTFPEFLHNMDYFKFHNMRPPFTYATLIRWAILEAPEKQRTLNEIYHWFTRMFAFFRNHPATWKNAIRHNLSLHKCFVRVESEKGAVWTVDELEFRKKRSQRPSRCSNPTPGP
As to the kind of experiment: Peptide binding to FOXP3 by surface plasmon resonance (SPR). Particulars: peptides 1-20 μM; ratio to p60 (SEQ ID NO: 1). The method in brief:
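C-terminally 6His-tagged human FOXP3, expressed in E. coli BL21(DE3) and Ni-affinity purified, was amine-coupled to a GLM chip (ProteOn XPR36). Peptides at 1–20 μM injected in triplicate in PBS, 0.005% Tween 20, pH 7.4, at 30 μl/min, with interspot reference. Binding given as ratio to reference peptide p60.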
A general note: Surface plasmon resonance follows binding to a sensor surface in real time, without labels.

For experiment [1], the target named is T2, FOXP3/Runx1 heterodimerization (Homo sapiens, UniProt Q9BZS1).
T2 construct: made in house; host or cells: E. coli BL21 (DE3)
T2 sequence (Q9BZS1 1-431): T1 sequence (Q9BZS1 1-431)
As to the kind of experiment: FOXP3/Runx1 heterodimerization inhibition (Alphascreen). The experiment is classed as biochemical. The following applies: for inhibition at 2.5 µM: read-out: Foxp3-Runx1 Inhibition % inhibition (2.5 μM). An excerpt: Plasmid pET20b FOXP3-His was generated to produce the human FOXP3 tagged with 6 histidines at the C terminus of the protein. Briefly, plasmid pDEST15-FOXP3 (provided by Dr. Casal, Madrid, Spain) was used as template to amplify FOXP3 by PCR using the primers Upper FOXP3 Ndel catatgcccaaccccaggc (SEQ ID NO: 55) and Lower FOXP3 […] (SEQ ID NO: 56). The resulting fragment was subcloned in pET20b at Ndel and NotI sites. pET45b His-Runx1 was obtained by PCR of activated human CD4 T cells obtained from healthy volunteers (after the signature of an informed consent) using the primers Upper Runx1 atgcgtatccccgtagatg (SEQ ID NO: 57) and Lower Runx1 […] (SEQ ID NO: 58) and the fragment was cloned in pcDNA3.1. Then, pET45b and pcDNA3.1-Runx1 were digested with BamHI and NotI and ligated to obtain pET45b-Runx1. Plasmids were used to transform BL21 cells (DE3; Novagen, Schwalbach, Germany) for the expression of the recombinant protein. The transformed BL21 cells were grown in LB medium at 37° C. (1 liter of final culture medium) (with ampicilin 0.1 mg/ml). Once the OD of the culture was between 0.5 and 1.0, IPTG (0.4 mM, final concentration) was added. Bacteria were then cultured overnight in agitation and centrifuged for 10 min at 8000 rpm. Cell pellet was then resuspended in 4 ml Tris-HCl 0.1 M and frozen at −80° C. Cell pellet was then thawed and incubated with lisozyme (25 KU) and a protease inhibitor cocktail for 15 min at 30° C. before cell lysis induced with a French-press. The resultant pool was then centrifuged during 20 min at 11.000 rpm). The recombinant protein was purified from the soluble fraction of French-press cell extracts by affinity chromatography (Histrap, Pharmacia) following manufacturer's instructions and using an FPLC platform (AKTA, Pharmacia). Plasmid pDEST15-FOXP3 encoding the fusion protein GST-FOXP3 (GST fused to the isoform A from human FOXP3 gene), was transformed into BL21 cells for the expression of the recombinant protein. GST-FOXP3 protein was purified from the soluble fraction of cell extracts obtained, as described above, by affinity chromatography (GSTrap; Amersham, Piscataway, N.J.) using a fast protein liquid chromatography platform (AKTA; Amersham) following manufacturer's instructions. The eluted proteins were desalted using Hitrap desalting columns (Pharmacia) and analyzed by SDS-PAGE using Coomassie blue (Bio-Safe Coomassie reagent; Bio-Rad, Hercules, Calif.) and by Western blot.
It has been described that dimerization of FOXP3 is required for its function as a transcriptional regulator. Moreover, interaction between FOXP3 and the transcription factor Runx1, is crucially required for normal hematopoiesis including thymic T-cell development, but also for Treg suppressor activity (Reviewed in Lozano et al, Front Oncol. 2013, 3:294). Both activities are mediated by the intermediate region of Foxp3, which is the area of interaction between P60 and Foxp3. Thus, we studied the effect of P60 and their mutants on the FOXP3/Runx1 heterodimerization, as well as FOXP3/FOXP3 homodimerization by Alphascreen technology according to the manufacturer's instructions (Perkin Elmer, Benelux). AlphaScreen™ is a bead-based technology that is designed to measure the proximity of donor and acceptor beads conjugated to biomolecules of interest.
To measure Foxp3-Runx1 interactions, Foxp3-GST and […] proteins were used.
Recombinant Runx1 expressed in E. Coli with a hexa-histidine tag (obtained as disclosed in section (1) above) was captured by nickel chelate acceptor beads following manufacturer's instructions, whereas the recombinant FOXP3 expressed with a GST tag was captured by glutathione donor beads (Perkin Elmer) following manufacturer's instructions. His-tagged Runx1 (46 nM final concentration) was incubated with 100 nM GST-FOXP3 and the peptides to be tested (added at different concentrations from 1 to 100 μM) for 1 h at room temperature. […]
(In general: Bead proximity is the source of the signal in Alpha formats.)

Where a SMILES comes first, the peptide text is derived from it. [ ]: non-standard residue; d: D form.

Broadly, the inhibition is the change of the read-out against control, counted positive when it falls.

For the molecule `CSCC[C@H](NC(=O)[C@H](C)NC(=O)[C@H](Cc1ccccc1)NC(=O)[C@H](Cc1ccccc1)NC(=O)[C@@H]1CCCN1C(=O)[C@H](Cc1c[nH]c2ccccc12)NC(=O)[C@H](CCSC)NC(=O)[C@H](CCCCN)NC(=O)[C@H](CCCNC(=N)N)NC(=O)[C@H](Cc1ccccc1)NC(=O)[C@H](CO)NC(=O)[C@H](CCC(N)=O)NC(=O)[C@H](Cc1ccccc1)NC(=O)[C@@H](CC(=O)O)NC(=O)[C@@H](N)CCCNC(=N)N)C(=O)O` [compound 3] (H-R[dD]FQSFRKMWPFFAM-OH), the “Binding to Foxp3 Ratio binding Peptide/p60 (fold change)” value on human FOXP3 (FOXP3-6His) is given as 2.8 fold change. As for `CSCC[C@H](NC(=O)[C@H](C)NC(=O)[C@H](Cc1ccccc1)NC(=O)[C@H](Cc1ccccc1)NC(=O)[C@@H]1CCCN1C(=O)[C@H](Cc1c[nH]c2ccccc12)NC(=O)[C@H](CCSC)NC(=O)[C@H](CCCCN)NC(=O)[C@H](CCCNC(=N)N)NC(=O)[C@H](Cc1ccccc1)NC(=O)[C@H](CO)NC(=O)[C@H](CCC(N)=O)NC(=O)[C@H](Cc1ccccc1)NC(=O)[C@H](C)NC(=O)[C@H](N)CCCNC(=N)N)C(=O)O` [compound 46] (H-[dR]AFQSFRKMWPFFAM-OH; N-terminus and C-terminus assumed), in experiment [1], the inhibition at 2.5 µM came out at 95%. Moreover, the “Binding to Foxp3 Ratio binding Peptide/p60 (fold change)” value on human FOXP3 (FOXP3-6His) was found to be 2.7 fold change.

In the case of `CSCC[C@H](NC(=O)[C@H](CCCCN)NC(=O)[C@H](CCCNC(=N)N)NC(=O)[C@H](Cc1ccccc1)NC(=O)[C@H](CO)NC(=O)[C@H](CCC(N)=O)NC(=O)[C@H](Cc1ccccc1)NC(=O)[C@H](C)NC(=O)[C@@H](N)CCCNC(=N)N)C(=O)N[C@@H](Cc1c[nH]c2ccccc12)C(=O)N1CCC[C@H]1C(=O)N[C@@H](Cc1ccccc1)C(=O)N[C@@H](Cc1ccccc1)C(=O)N[C@@H](C)C(=O)N[C@H](CCSC)C(=O)O` [compound 47] (H-RAFQSFRKMWPFFA[dM]-OH; N-terminus and C-terminus assumed), the inhibition at 2.5 µM in experiment [1] was 75%. Besides, the “Binding to Foxp3 Ratio binding Peptide/p60 (fold change)” value at human FOXP3 (FOXP3-6His) was determined as 1.7 fold change. In the same order, the values of `CSCC[C@H](NC(=O)[C@H](CCCCN)NC(=O)[C@H](CCCNC(=N)N)NC(=O)[C@H](Cc1ccccc1)NC(=O)[C@H](CO)NC(=O)[C@H](CCC(N)=O)NC(=O)[C@H](Cc1ccccc1)NC(=O)[C@H](C)NC(=O)[C@H](N)CCCNC(=N)N)C(=O)N[C@@H](Cc1c[nH]c2ccccc12)C(=O)N1CCC[C@H]1C(=O)N[C@@H](Cc1ccccc1)C(=O)N[C@@H](Cc1ccccc1)C(=O)N[C@@H](C)C(=O)N[C@H](CCSC)C(=O)O` [compound 48] (H-[dR]AFQSFRKMWPFFA[dM]-OH; N-terminus and C-terminus assumed) are 70% and 2.5 fold change. Consider `CSCC[C@@H]1NC(=O)[C@H](C)NC(=O)[C@H](Cc2ccccc2)NC(=O)[C@H](Cc2ccccc2)NC(=O)[C@@H]2CCCN2C(=O)[C@H](Cc2c[nH]c3ccccc23)NC(=O)[C@H](CCSC)NC(=O)[C@H](CCCCN)NC(=O)[C@H](CCCNC(=N)N)NC(=O)[C@H](Cc2ccccc2)NC(=O)[C@H](C)NC(=O)[C@H](CCC(N)=O)NC(=O)[C@H](Cc2ccccc2)NC(=O)[C@H](C)NC(=O)[C@H](CCCNC(=N)N)NC1=O` [compound 50] (cyclo(RAFQAFRKMWPFFAM)), for which the inhibition at 2.5 µM in experiment [1] stood at 60%. In the case of H-RDFQSFRKMWPFFAM-OH [compound 1], the inhibition at 100 µM in experiment [1] (read-out: Foxp3-Runx1 Inhibition % inhibition (100 μM)) was 54.5%. On human FOXP3 (FOXP3-6His), the “Binding to Foxp3 Ratio binding Peptide/p60 (fold change)” value is recorded as 1.0 fold change.
